{"source": "patent US9234025B2", "about": "“Extracellular allosteric inhibitor binding domain from a tyrosine kinase receptor” (SANOFI, priority 2009, dated 2016)", "key": {"[1]": {"tested_on": "AKT phosphorylation in HUVEC cells", "assay": "western blot analysis of AKT phosphorylation in HUVEC", "assay_type": "cell-based, human", "settings": "phospho-AKT Ser473", "protocol": "HUVE Cells (Promocell, C-12200) are seeded in 35 mm collagen I coated disk (BD Biocoat, 354456) at 0.5.10^6 cells in 2 ml of EBM medium (Clonetics, CC-3121) containing 2% FBS (Clonetics, CC-4101), 10 μg/ml hEGF (Clonetics, CC-4017) from the EGM singlequots kit (Clonetics, CC-4133), 1250 ng/ml heparin (Sigma, H3149) and 375 ng/ml ECGS (BD Biosciences, 356006). At 90% confluency, cells are starved overernight in 1.8 ml of RPMI 1640 (Invitrogen, 32404-014), 0.5% FCS, 2 mM glutamine, 1 mM non-essential amino acids (Invitrogen, 11140-050), sodium pyruvate (Invitrogen, 11360-070). The day after, cells are stimulated 10 min by 200 μl of equilibrated starvation medium that contains 10×FGF-4 (30 ng/ml; R&D, 235-F4-025) with or without 10×SSR (3 μM). Next, cells are rinsed with cold PBS and cell lysed with 75 μl RIPA that contains 2.5 mM orthovanadate and protease inhibitors cocktail (Sigma, P8340). Cell lysates were centrifuged at 12,000 g for 10 min, and the supernatants were collected. Proteins were separated on 4-20% Novex Tris-Glycine polyacrylamide gels (Invitrogen) and subsequently transferred onto nitrocellulose membranes (Invitrogen, IB3010-01). […] Signal of each spot is obtained following chemiluminescent detection with SuperSignal® West Dura Extended Duration Substrate (Thermo Scientific, 34076) and spot density is quantified using a Biolmaging System Chemigenius2 (Syngene)."}, "[2]": {"molecular_target": "T1, ECD of FGFR1 (FGFR1^∂123) (Homo sapiens, UniProt P11362)", "T1 construct": "(ECD; amino acids: 39-358) of the human FGFR1 gene (P11362); His-tag followed by TEV protease cleavage site (N); made in house; host or cells: E. coli BL21(DE3)", "T1 sequence (P11362 39-358)": "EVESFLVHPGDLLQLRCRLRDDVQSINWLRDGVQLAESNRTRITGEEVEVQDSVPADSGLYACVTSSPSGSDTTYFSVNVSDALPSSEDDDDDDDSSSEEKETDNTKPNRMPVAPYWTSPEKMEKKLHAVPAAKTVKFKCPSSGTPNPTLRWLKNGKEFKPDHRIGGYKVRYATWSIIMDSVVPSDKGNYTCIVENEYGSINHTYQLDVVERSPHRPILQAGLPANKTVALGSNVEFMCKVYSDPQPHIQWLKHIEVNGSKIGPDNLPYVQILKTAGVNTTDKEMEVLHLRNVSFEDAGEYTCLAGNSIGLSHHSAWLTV", "assay": "STD-NMR / 1D-NMR binding assay, FGFR1 ECD", "protocol": "The extracellular domain (ECD; amino acids: 39-358) of the human FGFR1 gene (P11362) was PCR amplified and cloned into E. coli vector pETTEV (with a N-terminal His-tag followed by a TEV protease cleavage site), using NdeI and BamHI restriction sites. For protein production, the resulting plasmid (pET FGFR1 D1D2D3) was transformed into E. coli BL21(DE3) (Novagene). Cells were grown at 37° C. until the OD600 reached 0.6 and recombinant protein production was induced by adding 1 mM IPTG (isopropyl-b-D-thiogalactopyranoside). After 4 hours induction, cells were harvested and stored at −80° C. until usage. The cell pellet (1 L culture) was thawed and resuspended in 50 ml buffer 1 (20 mM Tris/HCl, pH 7.5, 200 mM NaCl) containing lysozyme (2 mg), and 40 U benzonase (Merck). […] Complex formation was analyzed by size exclusion chromatography and subsequent analysis on SDS-PAGE.\nAll STD- and 1D-NMR experiments were carried out on a BRUKER three-channel DRX600 and on a BRUKER four-channel DRX800 spectrometer at the standard temperature of 298 K and were referenced to the internal standard 3-Trimethyl-2,2,3,3-tetradeuteropropionate-sodium salt (TSP). […] For protein ligand 1D STD NMR measurements spectra were recorded with 1 mM ligand SSR128129E (100 mM DMSO stock solution) and […] protein with weak 2s RF irradiation on separated protein methyl resonances. […]"}}}
{"smiles": "COc1c(C)c(C(=O)c2ccc(N)c(C(=O)[O-])c2)n2ccccc12.[Na+]", "note": "[SSR]", "values": [{"measurement": "FGF-induced AKT phosphorylation", "setting": "[1]", "value": "inhibit"}, {"measurement": "binding to ECD of FGFR1", "setting": "[2]; STD-NMR, confirmed by 1D-NMR peak broadening", "value": "bound"}, {"measurement": "STD-NMR signal of SSR to the FGFR with heparin analogue", "setting": "[2]; presence or absence of sucrose octasulphate (SOS)", "value": "comparable signal"}]}
